Measurements published in paper PMC11532403 (Signal Transduction and Targeted Therapy, 2024).
“And” between values parts separate entries of the source, which are not always exact repeats. Equal values may be shown once.

Legend:
[1] = tested on: patients with advanced RET-altered solid tumors; assay: Phase 1 trial: treatment-related adverse events (CTCAE v5.0), DLT, MTD;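 also: Open-label single-arm first-in-human phase 1 study at six Chinese sites with 3 + 3 dose escalation and expansion, adverse events given descriptively as patient counts and percentages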
Method: This single-arm, open-label, first-in-human, dose-escalation and dose-expansion phase 1 study was conducted across six sites in China (NCT05278364). […] Dose escalation followed a 3 + 3 design, incorporating accelerated titration[41] for the first two dose levels and a modified Fibonacci dose escalation.[42]
The primary endpoints for this study were to determine the MTD, DLT, RP2D and safety. […] All responses required a confirmation of radiologic assessment at least 4 weeks after the first assessment.
The Pharmacokinetic Analysis Set (PKAS) included all patients with at least one evaluable PK sample (n = 43). Descriptive statistics were used for baseline data, summarizing continuous data with mean, standard deviation, median, minimum, and maximum, and categorical data with frequency and percentage. Safety analysis was descriptive, including adverse events summarized by frequency and severity. PK parameter analysis was performed using Phoenix WinNonlin version 8.0 (Certara L.P. [Pharsight], St. Louis, MO, USA), and results were summarized using geometric mean and coefficient of variation. CIs for response rates were calculated using the Clopper-Pearson method. […] All analysis were performed with SAS statistical software, version 9.2 (SAS Institute).

CYP2C9 = target: T1, CYP2C9 (Homo sapiens, UniProt P11712); assay: CYP inhibition in human liver microsomes; assay type: in vitro ADME; details: 0.5-25 μM
T1 construct: substrates of different CYP450 enzymes in mixed human liver microsomes; from tissue; host or cells: mixed human liver microsomes
T1 sequence (P11712 whole entry): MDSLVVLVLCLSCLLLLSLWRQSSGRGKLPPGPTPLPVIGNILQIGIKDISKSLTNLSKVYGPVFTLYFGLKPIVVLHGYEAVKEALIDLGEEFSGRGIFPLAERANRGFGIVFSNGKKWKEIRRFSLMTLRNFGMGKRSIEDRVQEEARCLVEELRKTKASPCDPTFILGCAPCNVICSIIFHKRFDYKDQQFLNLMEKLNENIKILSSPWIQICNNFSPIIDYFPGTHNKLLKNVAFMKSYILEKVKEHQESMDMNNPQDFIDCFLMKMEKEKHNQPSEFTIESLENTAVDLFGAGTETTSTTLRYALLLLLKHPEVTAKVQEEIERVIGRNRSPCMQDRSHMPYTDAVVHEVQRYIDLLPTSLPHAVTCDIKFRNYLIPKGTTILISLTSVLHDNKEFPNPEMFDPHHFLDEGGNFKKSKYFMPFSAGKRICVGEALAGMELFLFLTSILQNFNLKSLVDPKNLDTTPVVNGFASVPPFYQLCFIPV

respiratory system = assay: Respiratory safety pharmacology; assay type: in vivo, SD rats; details: single oral, males 15-40, females 30-80 mg/kg
Method: All rats were evaluated by cage-side observation, detailed clinical observation, body weight and respiratory parameters (tidal volume, minute tidal volume and respiratory rate).

CYP3A4 = target: T2, CYP3A4 (Homo sapiens, UniProt P08684); assay: CYP inhibition in human liver microsomes; assay type: in vitro ADME; details: mixed human liver microsomes, 0.5-25 μM
T2 construct: substrates of different CYP450 enzymes in mixed human liver microsomes; from tissue; host or cells: mixed human liver microsomes
T2 sequence (P08684 whole entry): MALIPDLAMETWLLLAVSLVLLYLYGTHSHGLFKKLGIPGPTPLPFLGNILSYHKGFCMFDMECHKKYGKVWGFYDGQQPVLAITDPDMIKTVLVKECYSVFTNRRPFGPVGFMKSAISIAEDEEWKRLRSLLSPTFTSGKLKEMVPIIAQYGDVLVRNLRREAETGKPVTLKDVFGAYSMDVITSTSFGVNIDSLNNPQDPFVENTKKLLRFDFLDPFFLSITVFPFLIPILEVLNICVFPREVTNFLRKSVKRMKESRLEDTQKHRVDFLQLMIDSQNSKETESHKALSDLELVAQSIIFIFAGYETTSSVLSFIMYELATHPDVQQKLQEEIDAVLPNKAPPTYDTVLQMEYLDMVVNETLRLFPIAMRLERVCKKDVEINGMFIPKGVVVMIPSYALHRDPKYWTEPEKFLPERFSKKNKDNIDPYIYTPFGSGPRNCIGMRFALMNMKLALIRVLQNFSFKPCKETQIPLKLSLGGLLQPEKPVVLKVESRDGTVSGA

RET-driven xenografts = assay: RET-driven xenograft models, overall; assay type: in vivo, mice; details: for Effective tumor suppressant dose (mg/kg): tumor-bearing mice
Method: All procedures relating to animal handling, care, and treatment were performed according to the Beijing Laboratory Animal Management Regulations. 6-week-old male BALB/c nude mice were inoculated subcutaneously into the flank with Baf3-CCDC6-RET^WT (5*10^6 cells/ 0.1 mL/ each), Baf3-CCDC6-RET^M918T (5*10^6 cells/0.1 mL/each), Baf3-CCDC6-RET^V804M (5*10^6 cells/ 0.1 mL/ each), or HEK293T-KIF5B-RET^V804M (5*10^6 cells/ 0.1 mL/ each). Mice were randomized by tumor size into groups of 10 to 12 when tumor volume reached approximately 100-150 mm^3. […] Tumor size and body weight were measured two times each week, and tumor volume was calculated with the following formula: [length × (width)^2]/ 2. Statistical significance was calculated by using two-way ANOVA test to assess the difference in tumor volumes between the control (vehicle-treated) and treatment groups.
Supplementary Figure S1. […] Mice bearing Baf3-CCDC6-RET^WT (a), Baf3-CCDC6-RET^M918T (b) and Baf3-CCDC6-RET^V804M (c) xenograft and time course of treatment. Data represent mean ± standard error of the mean (SEM). There were 12 mice in each group in both models. d, Mice bearing HEK293T-KIF5B-RET^V804M xenograft and time course of treatment. Data represent mean ± SEM. There were 10 mice in each group in this model. […] Statistical analysis was performed using a two-way ANOVA test. *, […]; **, p < 0.01; ***, p < 0.001; ****, p < 0.0001. Abbreviations: bid, bis in die; mc, methyl cellulose; mpk, mg/Kg.

CYP2D6 = target: T3, CYP2D6 (Homo sapiens, UniProt P10635); assay: CYP inhibition in human liver microsomes; assay type: in vitro ADME; details: 0.5-25 μM
T3 construct: substrates of different CYP450 enzymes in mixed human liver microsomes; from tissue; host or cells: mixed human liver microsomes
T3 sequence (P10635 whole entry): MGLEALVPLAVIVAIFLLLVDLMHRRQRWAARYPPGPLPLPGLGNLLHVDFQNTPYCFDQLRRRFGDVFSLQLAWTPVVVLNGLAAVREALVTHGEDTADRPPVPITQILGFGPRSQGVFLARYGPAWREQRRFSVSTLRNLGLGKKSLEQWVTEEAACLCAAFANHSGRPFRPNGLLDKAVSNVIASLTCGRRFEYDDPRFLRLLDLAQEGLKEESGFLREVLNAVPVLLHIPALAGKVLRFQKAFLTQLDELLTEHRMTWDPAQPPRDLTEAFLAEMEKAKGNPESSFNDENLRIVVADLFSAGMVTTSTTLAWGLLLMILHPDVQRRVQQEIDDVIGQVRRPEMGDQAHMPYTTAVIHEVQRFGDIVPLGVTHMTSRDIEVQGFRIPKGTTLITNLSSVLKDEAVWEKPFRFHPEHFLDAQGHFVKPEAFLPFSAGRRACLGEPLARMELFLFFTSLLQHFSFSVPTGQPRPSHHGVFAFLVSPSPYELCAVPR

COc1ccc(CN2C3CC2CN(c2ccc(-c4cc(N5CC(C)(O)C5)cn5ncc(C#N)c45)cn2)C3)cn1 [SY-5007, 6-(3-hydroxy-3-methylazetidin-1-yl)-4-(6-(6-((6-methoxypyridin-3-yl)methyl)-3,6-diazabicyclo[3.1.1]heptan-3-yl)pyridin-3-yl)pyrazolo[1,5-a]pyridine-3-carbonitrile]
Dose-limiting toxicity (DLT) ([1]; 20 mg QD to 200 mg BID): No dose-limiting toxicity (DLT) was observed
Albuminuria ([1]; All Grade, Total (n = 122)): 45 (36.9) n (%)
Anemia ([1]; All Grade, Total (n = 122)): 27 (22.1) n (%)
Any TRAE ([1]; All Grade, Total (n = 122)): 96.7 n (%) and 118 (96.7) n (%)
Conjugated Hyperbilirubinemia ([1]; All Grade, Total (n = 122)): 23 (18.9) n (%)
Diarrhea ([1]; All Grade, Total (n = 122)): 54.1 n (%) and 66 (54.1) n (%)
Dry mouth ([1]; All Grade, Total (n = 122)): 40 (32.8) n (%)
Facial edema ([1]; All Grade, Total (n = 122)): 35 (28.7) n (%)
Hyperbilirubinemia ([1]; All Grade, Total (n = 122)): 51 (41.8) n (%)
Hyperglycemia ([1]; All Grade, Total (n = 122)): 22 (18.0) n (%)
Hyperphosphatemia ([1]; All Grade, Total (n = 122)): 42 (34.4) n (%)
Hypertension ([1]; All Grade, Total (n = 122)): 50 (41.0) n (%)
Hypertriglyceridemia ([1]; All Grade, Total (n = 122)): 55 (45.1) n (%)
Hyperuricemia ([1]; All Grade, Total (n = 122)): 41 (33.6) n (%)
Hypoalbuminemia ([1]; All Grade, Total (n = 122)): 33 (27.0) n (%)
Hypocalcemia ([1]; All Grade, Total (n = 122)): 34 (27.9) n (%)
Hyponatremia ([1]; All Grade, Total (n = 122)): 23 (18.9) n (%)
Hypopotassemia ([1]; All Grade, Total (n = 122)): 19 (15.6) n (%)
Hypothyroidism ([1]; All Grade, Total (n = 122)): 38 (31.1) n (%)
Increased alanine aminotransferase ([1]; All Grade, Total (n = 122)): 56.6 n (%) and 69 (56.6) n (%)
Increased aspartate aminotransferase ([1]; All Grade, Total (n = 122)): 69.7 n (%) and 85 (69.7) n (%)
Increased blood alkaline phosphatase ([1]; All Grade, Total (n = 122)): 43 (35.2) n (%)
Increased blood creatine ([1]; All Grade, Total (n = 122)): 45 (36.9) n (%)
Increased blood creatine phosphokinase ([1]; All Grade, Total (n = 122)): 40 (32.8) n (%)
Increased blood creatine phosphokinase MB ([1]; All Grade, Total (n = 122)): 54 (44.3) n (%)
Increased blood lactate dehydrogenase ([1]; All Grade, Total (n = 122)): 51 (41.8) n (%)
Increased γ-Glutamyl transferase ([1]; All Grade, Total (n = 122)): 28 (23.0) n (%)
Leukopenia ([1]; All Grade, Total (n = 122)): 56 (45.9) n (%)
Lymphopenia ([1]; All Grade, Total (n = 122)): 30 (24.6) n (%)
Neutropenia ([1]; All Grade, Total (n = 122)): 54.1 n (%) and 66 (54.1) n (%)
Palmoplantar erythema syndrome ([1]; All Grade, Total (n = 122)): 23 (18.9) n (%)
Peripheral edema ([1]; All Grade, Total (n = 122)): 23 (18.9) n (%)
Thrombocytopenia ([1]; All Grade, Total (n = 122)): 50 (41.0) n (%)
Weakness ([1]; All Grade, Total (n = 122)): 20 (16.4) n (%)
Weight loss ([1]; All Grade, Total (n = 122)): 22 (18.0) n (%)
Xeromycteria ([1]; All Grade, Total (n = 122)): 21 (17.2) n (%)
Conjugated Hyperbilirubinemia ([1]; Grade ⩾ 3, dose group): 0 (0.0) n (%)
Dry mouth ([1]; Grade ⩾ 3, dose group): 0 (0.0) n (%)
Facial edema ([1]; Grade ⩾ 3, dose group): 0 (0.0) n (%)
Hyperglycemia ([1]; Grade ⩾ 3, dose group): 0 (0.0) n (%)
Hyperphosphatemia ([1]; Grade ⩾ 3, dose group): 0 (0.0) n (%)
Hyperuricemia ([1]; Grade ⩾ 3, dose group): 0 (0.0) n (%)
Hypoalbuminemia ([1]; Grade ⩾ 3, dose group): 0 (0.0) n (%)
Hypothyroidism ([1]; Grade ⩾ 3, dose group): 0 (0.0) n (%)
Increased blood alkaline phosphatase ([1]; Grade ⩾ 3, dose group): 0 (0.0) n (%)
Increased blood creatine ([1]; Grade ⩾ 3, dose group): 0 (0.0) n (%)
Increased blood lactate dehydrogenase ([1]; Grade ⩾ 3, dose group): 0 (0.0) n (%)
Peripheral edema ([1]; Grade ⩾ 3, dose group): 0 (0.0) n (%)
Xeromycteria ([1]; Grade ⩾ 3, dose group): 0 (0.0) n (%)
Dose discontinuation due to TRAE ([1]; n = 122): 2 (1.6%) n (%)
Dose interruption due to diarrhea ([1]; n = 122): 10.7%
Dose interruption due to hypertension ([1]; n = 122): 12.3%
Dose reduction due to hypertension ([1]; n = 122): 5.7%
TRAE-induced dose interruption ([1]; n = 122): 56 (45.9%) n (%)
TRAE-induced dose reduction ([1]; n = 122): 29 (23.8%) n (%)
Treatment-related deaths ([1]; n = 122): no treatment-related deaths
Treatment-related serious adverse events (TRSAEs) ([1]; n = 122): 13 (10.7%) n (%)
Maximum tolerated dose (MTD) ([1]; up to 200 mg BID): not reached
IC50 (CYP2C9): 6.68 µM
Respiratory effects (respiratory system): nor did it show any effects on the respiratory parameters
IC50 (CYP3A4): 18 µM
Minimal effective dose (significant tumor growth inhibition in most models) (RET-driven xenografts; mouse, in vivo): 10 mg/kg BID
Effective tumor suppressant dose (mg/kg) (RET-driven xenografts; daily dose of 3 mg/kg BID): 6(3 mg/kg BID)
Effective tumor suppressant dose (mg/kg) (RET-driven xenografts; daily dose of 6 mg/kg BID): 12(6 mg/kg BID)
IC50 (CYP2D6): > 25 µM
